Source: patent US20210121426A1, “BLOOD PURIFICATION BY ALKALINIZING AGENT” (TOHOKU UNIVERSITY, priority 2017, published 2021)
Marks after values point to notes of the source that are not given here.

How the values were obtained:
indoxyl sulfate = experiment: Urine indoxyl sulfate (IS) corrected by urinary specific gravity; format: in vivo, human
From the text: (§1) Medical Examination, Vol. 44, No. 1, 1995, pages 79-83 by Tetsuo Aoki et al. was referred to. A urinary specific gravity 1.022 was converted into a reference value.
(§2) Specific gravity correction value (unit/1.022·UG)=actual measurement value×(1.022−1.000)/(specific gravity value−1.000)

phenylacetyl-L-glutamine [1] = experiment: Human clinical trial in CKD patients: phenylacetyl-L-glutamine in plasma and early morning urine (LC-MS/MS); format: in vivo; parameters: key to Influence on concentration of PAG / Influence on PAG U/P ratio: Excellent effects: ◯; Poor effects: X; No significant difference: —; (◯): whether or not there is an effect of promoting excretion of indoxyl sulfate into the urine cannot be determined
Description: (§3) 1. […] Patients were assigned to each group so that age, sex, presence of diabetes, and eGFR were not biased. Each group was treated according to the “CKD medical care guide-summary of treatment” (hereinafter referred to as standard treatment).
(§4) An alkalinizing agent was not administered to the control group. […] A pH of early morning urine was controlled over time so that the dosage could be increased up to 6 tablets, 3 times a day (morning, noon, evening) as needed according to the discretion of the physician in cases where a pH of early morning urine was less than pH 6.5. To the group B, 3 tablets a day in which each tablet contained 500 mg of sodium bicarbonate were orally administered 3 times a day (morning, noon, evening) for 24 weeks. A pH of early morning urine was controlled over time so that the dosage could be increased up to 6 tablets, 3 times a day (morning, noon, evening) as needed according to the discretion of the physician in cases where a pH of early morning urine was less than pH 6.5.
Early morning urine and blood were collected before the start of administration, and 6 weeks, 12 weeks, and 24 weeks after the start of administration, and each specimen was stored at −80° C. Methods used in the present field for indoxyl sulfate, p-cresyl sulfate, phenylacetyl-L-glutamine, hippuric acid, and argininosuccinic acid in urine and blood (Sato, E., et. al., Metabolic alteration by indoxyl sulfate in skeletal muscle induce uremic sarcopenia in chronic kidney disease., Sci Rep. 2016 Nov. 10; 6:36618. doi: 10.1038/srep36618, and the like) were referred to, and quantitative analysis was performed using the following liquid chromatography triple quadrupole mass spectrometer (LC-MS/MS).
For LC, NANOSPACE SI-2 (manufactured by Shiseido) was used, and […] MGM was selected as the analytical column.
For MS, TSQ Quantiva (manufactured by Thermo Fisher Scientific Co., Ltd.) was used, and five compounds were ionized in the negative mode and detected using the Selected Reaction Monitoring method. The quantitative value was calculated using a calibration curve prepared with a standard solution of each compound.
For statistical analysis, the Mann-Whitney test was used for comparison between groups, and the Wilcoxon test was used for comparison of changes over time. The Pearson test was used for correlation.
Then, the average value and SD of each group were calculated for (i) to (ix) above. For each of (iv) to (ix) above, the average value and SD of each group were calculated for all data of 6 weeks, 12 weeks, and 24 weeks after the start of administration in each group.

[2] = Human clinical trial: urinary specific gravity of early morning urine (urine hydrometer); format: in vivo
Description: as §3, §4
In addition, amounts of change in each urinary specific gravity after 6, 12, and 24 weeks after the start of the test are respectively shown as a % relative value with respect to each urinary specific gravity before the start of the test, and a difference from urinary specific gravity before the start of the teste in Tables 11-0-2 and 11-0-3. The urinary specific gravity was measured using a urine hydrometer (PAL-09S, Atago Co., Ltd., Tokyo, Japan).

argininosuccinic acid = experiment: Urine argininosuccinic acid (ASA) corrected by urinary specific gravity; format: in vivo, human
From the text: as §1, §2

phenylacetyl-L-glutamine [3] = experiment: Urine phenylacetyl-L-glutamine (PAG) corrected by urinary specific gravity; format: in vivo, human
From the text: as §1, §2

[4] = 0 W, before the start of administration
[5] = 6-24 W, all data of 6, 12 and 24 weeks

## O=C([O-])O.[Na+] [Bicarbonate, sodium bicarbonate]
Indoxyl sulfate; 6-24 W, all data
  Urine IS, specific gravity corrected: 76.7 ± 38.0 μg · mL^−1/1.022 · UG
  Urine IS, specific gravity corrected, % Relative value vs week 0: 89 ± 45%
  Urine IS, specific gravity corrected, difference vs week 0: −15.9 ± 34.4 μg · mL^−1/1.022 · UG
Indoxyl sulfate; 6 W
  Urine IS, specific gravity corrected: 83.3 ± 41.9 μg · mL^−1/1.022 · UG
  Urine IS, specific gravity corrected, % Relative value vs week 0: 95 ± 30%
  Urine IS, specific gravity corrected, difference vs week 0: −9.3 ± 27.7 μg · mL^−1/1.022 · UG
Indoxyl sulfate; 12 W
  Urine IS, specific gravity corrected, % Relative value vs week 0: 77 ± 42%
  Urine IS, specific gravity corrected, difference vs week 0: −27.0 ± 32.9^ μg · mL^−1/1.022 · UG
Indoxyl sulfate; 24 W
  Urine IS, specific gravity corrected: 81.1 ± 41.6 μg · mL^−1/1.022 · UG
  Urine IS, specific gravity corrected, % Relative value vs week 0: 95 ± 59%
  Urine IS, specific gravity corrected, difference vs week 0: −11.4 ± 40.8 μg · mL^−1/1.022 · UG
phenylacetyl-L-glutamine [1]; [4]
  Phenyl Acetyl L-Glutamine (PAG)-Urine/Plasma ratio: 102.2 ± 96.5
  Plasma Phenyl Acetyl L-Glutamine (PAG): 1324 ± 949 ng/mL
  Urine Phenyl Acetyl L-Glutamine (PAG) (early morning urine): 124676 ± 149757 ng/mL
phenylacetyl-L-glutamine [1]; [5]
  PAG - Urine/Plasma ratio, change from week 0: −14.9 ± 95.3
  Phenyl Acetyl L-Glutamine (PAG)-Urine/Plasma ratio: 87.3 ± 86.2
  Plasma PAG, change from week 0: -98.6 ± 688.1 ng/mL
  Plasma Phenyl Acetyl L-Glutamine (PAG): 1226 ± 983 ng/mL
  Urine PAG, change from week 0: -13663 ± 74566 ng/mL
  Urine Phenyl Acetyl L-Glutamine (PAG) (early morning urine): 109378 ± 163923 ng/mL
phenylacetyl-L-glutamine [1]; 6 W
  PAG - Urine/Plasma ratio, change from week 0: −8.5 ± 57.8
  Phenyl Acetyl L-Glutamine (PAG)-Urine/Plasma ratio: 93.7 ± 84.0
  Plasma PAG, change from week 0: -84.0 ± 636.1 ng/mL
  Plasma Phenyl Acetyl L-Glutamine (PAG): 1240 ± 1062 ng/mL
  Urine PAG, change from week 0: 20077 ± 118811 ng/mL
  Urine Phenyl Acetyl L-Glutamine (PAG) (early morning urine): 144753 ± 246773 ng/mL
phenylacetyl-L-glutamine [1]; 12 W
  PAG - Urine/Plasma ratio, change from week 0: −31.8 ± 81.8
  Phenyl Acetyl L-Glutamine (PAG)-Urine/Plasma ratio: 70.4 ± 46.8
  Plasma PAG, change from week 0: -171.6 ± 896.9 ng/mL
  Plasma Phenyl Acetyl L-Glutamine (PAG): 1153 ± 1000 ng/mL
  Urine PAG, change from week 0: -42198 ± 85069 ng/mL
  Urine Phenyl Acetyl L-Glutamine (PAG) (early morning urine): 82478 ± 112943^b ng/mL
phenylacetyl-L-glutamine [1]; 12 and 24 weeks after administration, compared to before administration
  concentration of phenylacetyl-L-glutamine in urine: such an effect was not recognized
phenylacetyl-L-glutamine [1]; 24 W
  PAG - Urine/Plasma ratio, change from week 0: −4.3 ± 133.9
  Phenyl Acetyl L-Glutamine (PAG)-Urine/Plasma ratio: 97.9 ± 116.4
  Plasma PAG, change from week 0: -40.3 ± 514.7 ng/mL
  Plasma Phenyl Acetyl L-Glutamine (PAG): 1284 ± 945 ng/mL
  Urine PAG, change from week 0: -23774 ± 117957 ng/mL
  Urine Phenyl Acetyl L-Glutamine (PAG) (early morning urine): 100902 ± 91424 ng/mL
phenylacetyl-L-glutamine [1]; Plasma, comparison with Cont
  Influence on concentration of PAG: —
phenylacetyl-L-glutamine [1]; Plasma, comparison with reference drug
  Influence on concentration of PAG: —
phenylacetyl-L-glutamine [1]; comparison with Cont
  Influence on PAG U/P ratio: —
phenylacetyl-L-glutamine [1]; comparison with reference drug
  Influence on PAG U/P ratio: —
phenylacetyl-L-glutamine [1]; Urine, comparison with Cont
  Influence on concentration of PAG: —
phenylacetyl-L-glutamine [1]; Urine, comparison with reference drug
  Influence on concentration of PAG: X
phenylacetyl-L-glutamine [1]; compared to before administration
  concentration of phenylacetyl-L-glutamine in plasma (decreasing effect): strongly recognized
[2]; 0 W, before the start of the test
  Urine Specific Gravity: 1.014 ± 0.007
[2]; 6-24 W, all data
  Urine Specific Gravity: 1.014 ± 0.006
  Urine Specific Gravity (% Relative value vs week 0): 100.00 ± 0.67%
  Urine Specific Gravity, difference vs week 0: 0.0002 ± 0.0058^b
[2]; 6 W
  Urine Specific Gravity: 1.014 ± 0.006
  Urine Specific Gravity (% Relative value vs week 0): 100.02 ± 0.53%
  Urine Specific Gravity, difference vs week 0: 0.0002 ± 0.0054
[2]; 12 W
  Urine Specific Gravity: 1.013 ± 0.005
  Urine Specific Gravity (% Relative value vs week 0): 99.89 ± 0.58^e %
  Urine Specific Gravity, difference vs week 0: −0.0012 ± 0.0058^e
[2]; 24 W
  Urine Specific Gravity: 1.016 ± 0.007
  Urine Specific Gravity (% Relative value vs week 0): 100.17 ± 0.61%
  Urine Specific Gravity, difference vs week 0: 0.0017 ± 0.0062
[2]; over 6, 12 and 24 weeks, compared with the control group
  urinary specific gravity value: maintained or increased
Argininosuccinic acid; 0 W
  Urine ASA, specific gravity corrected: 5.87 ± 5.13 μg · mL^−1/1.022 · UG
Argininosuccinic acid; 6-24 W, all data
  Urine ASA, specific gravity corrected: 5.02 ± 3.37 μg · mL^−1/1.022 · UG
  Urine ASA, specific gravity corrected, % Relative value vs week 0: 97 ± 31%
  Urine ASA, specific gravity corrected, difference vs week 0: −0.85 ± 2.76 μg · mL^−1/1.022 · UG
Argininosuccinic acid; 6 W
  Urine ASA, specific gravity corrected: 5.47 ± 3.87 μg · mL^−1/1.022 · UG
  Urine ASA, specific gravity corrected, % Relative value vs week 0: 101 ± 32%
  Urine ASA, specific gravity corrected, difference vs week 0: −0.40 ± 2.25 μg · mL^−1/1.022 · UG
Argininosuccinic acid; 12 W
  Urine ASA, specific gravity corrected: 4.66 ± 2.78 μg · mL^−1/1.022 · UG
  Urine ASA, specific gravity corrected, % Relative value vs week 0: 93 ± 29%
  Urine ASA, specific gravity corrected, difference vs week 0: −0.21 ± 3.04 μg · mL^−1/1.022 · UG
Argininosuccinic acid; 24 W
  Urine ASA, specific gravity corrected: 4.93 ± 3.58 μg · mL^−1/1.022 · UG
  Urine ASA, specific gravity corrected, % Relative value vs week 0: 97 ± 33%
  Urine ASA, specific gravity corrected, difference vs week 0: −0.94 ± 3.02 μg · mL^−1/1.022 · UG
phenylacetyl-L-glutamine [3]; 0 W
  Urine PAG, specific gravity corrected: 203.6 ± 169.1 μg · mL^−1/1.022 · UG
phenylacetyl-L-glutamine [3]; 6-24 W, all data
  Urine PAG, specific gravity corrected: 162.0 ± 182.5 μg · mL^−1/1.022 · UG
  Urine PAG, specific gravity corrected, % Relative value vs week 0: 87 ± 60%
  Urine PAG, specific gravity corrected, difference vs week 0: −41.6 ± 126.8 μg · mL^−1/1.022 · UG
phenylacetyl-L-glutamine [3]; 6 W
  Urine PAG, specific gravity corrected: 202.9 ± 260.9 μg · mL^−1/1.022 · UG
  Urine PAG, specific gravity corrected, % Relative value vs week 0: 97 ± 71%
  Urine PAG, specific gravity corrected, difference vs week 0: −0.7 ± 162.0 μg · mL^−1/1.022 · UG
phenylacetyl-L-glutamine [3]; 12 W
  Urine PAG, specific gravity corrected, % Relative value vs week 0: 76 ± 60%
  Urine PAG, specific gravity corrected, difference vs week 0: −67.6 ± 91.9 ^ μg · mL^−1/1.022 · UG
phenylacetyl-L-glutamine [3]; 24 W
  Urine PAG, specific gravity corrected: 147.1 ± 116.4 μg · mL^−1/1.022 · UG
  Urine PAG, specific gravity corrected, % Relative value vs week 0: 88 ± 49%
  Urine PAG, specific gravity corrected, difference vs week 0: −56.5 ± 113.7 μg · mL^−1/1.022 · UG
